Laboratory results published in PubChem BioAssay AID1259407 (Chemical Carcinogenesis Research Information System (CCRIS), 2018).
Activity calls are given as the source filed them. No rule for the calls is given here.

Tested on: CCRIS mutagenicity, Ames/micronucleus/aberration tests
Assay: CCRIS mutagenicity studies

Which mutagenic call (End Point: IN VITRO MICRONUCLEUS, Test System: AHH-1 CELLS, Metabolic Activation: NONE) does the source give for `COc1cc2c(c3oc(=O)c4c(c13)CCC4=O)[C@@H]1C=CO[C@@H]1O2` here?
Its mutagenic call is “active; positive”.

What about the mutagenic call (End Point: IN VITRO MICRONUCLEUS, Test System: MCL-5 CELLS, Metabolic Activation: NONE) of the same compound?
The mutagenic call was “active; positive”.

And the mutagenic call (Test System: AMES SALMONELLA TYPHIMURIUM, Strain/Indicator: TA98, Metabolic Activation: EPITHELIAL CELL-MEDIATED, AROCLOR 1254, Method: PREINCUBATION)?
Its mutagenic call is “active; positive”.

What about the mutagenic call (Test System: AMES SALMONELLA TYPHIMURIUM, Strain/Indicator: TA98, Metabolic Activation: EPITHELIAL CELL-MEDIATED, NADPH, Method: PREINCUBATION) of the same compound?
The mutagenic call was “active; positive”.

And the mutagenic call (Test System: AMES SALMONELLA TYPHIMURIUM, Strain/Indicator: TA98, Metabolic Activation: EPITHELIAL CELL-MEDIATED, Method: PREINCUBATION)?
The mutagenic call was “active; positive”.

And the mutagenic call (Test System: AMES SALMONELLA TYPHIMURIUM, Strain/Indicator: TA98, Metabolic Activation: HAMSTER, LIVER, S-9, Method: MICROSUSPENSION)?
Its mutagenic call is “active; positive”.

And the mutagenic call (Test System: AMES SALMONELLA TYPHIMURIUM, Strain/Indicator: TA98, Metabolic Activation: HAMSTER, LUNG, S-9, Method: MICROSUSPENSION)?
The mutagenic call was “inactive; negative”.

What about the mutagenic call (Test System: AMES SALMONELLA TYPHIMURIUM, Strain/Indicator: TA98, Metabolic Activation: HAMSTER, TRACHEA, S-9, Method: MICROSUSPENSION) of the same compound?
The mutagenic call was “active; positive”.

What about the mutagenic call (Test System: AMES SALMONELLA TYPHIMURIUM, Strain/Indicator: TA98, Metabolic Activation: HUMAN LIVER, S-9, Method: STANDARD PLATE) of the same compound?
Its mutagenic call is “active; positive”.

And the mutagenic call (Test System: AMES SALMONELLA TYPHIMURIUM, Strain/Indicator: TA98, Metabolic Activation: HUMAN, LIVER, S-9, Method: STANDARD PLATE)?
The mutagenic call was “active; positive”.

And the mutagenic call (Test System: AMES SALMONELLA TYPHIMURIUM, Strain/Indicator: TA98, Metabolic Activation: KUPFFER CELL-MEDIATED, AROCLOR 1254, Method: PREINCUBATION)?
The mutagenic call was “active; positive”.

What about the mutagenic call (Test System: AMES SALMONELLA TYPHIMURIUM, Strain/Indicator: TA98, Metabolic Activation: KUPFFER CELL-MEDIATED, NADPH, Method: PREINCUBATION) of the same compound?
The mutagenic call was “active; positive”.

And the mutagenic call (Test System: AMES SALMONELLA TYPHIMURIUM, Strain/Indicator: TA98, Metabolic Activation: KUPFFER CELL-MEDIATED, Method: PREINCUBATION)?
The mutagenic call was “active; positive”.

And the mutagenic call (Test System: AMES SALMONELLA TYPHIMURIUM, Strain/Indicator: TA98, Metabolic Activation: NONE, Method: MICROSUSPENSION)?
The mutagenic call was “active; positive”.

What about the mutagenic call (Test System: AMES SALMONELLA TYPHIMURIUM, Strain/Indicator: TA98, Metabolic Activation: NONE, Method: PREINCUBATION) of the same compound?
Its mutagenic call is “inactive; negative”.

And the mutagenic call (Test System: AMES SALMONELLA TYPHIMURIUM, Strain/Indicator: TA98, Metabolic Activation: NONE, Method: STANDARD PLATE)?
The mutagenic call was “active; positive”.

What about the mutagenic call (Test System: AMES SALMONELLA TYPHIMURIUM, Strain/Indicator: TA98, Metabolic Activation: PARENCHYMAL CELL-MEDIATED, AROCLOR 1254, Method: PREINCUBATION) of the same compound?
The mutagenic call was “active; positive”.

And the mutagenic call (Test System: AMES SALMONELLA TYPHIMURIUM, Strain/Indicator: TA98, Metabolic Activation: PARENCHYMAL CELL-MEDIATED, NADPH, Method: PREINCUBATION)?
The mutagenic call was “active; positive”.

What about the mutagenic call (Test System: AMES SALMONELLA TYPHIMURIUM, Strain/Indicator: TA98, Metabolic Activation: PARENCHYMAL CELL-MEDIATED, Method: PREINCUBATION) of the same compound?
Its mutagenic call is “inactive; negative”.

What about the mutagenic call (Test System: AMES SALMONELLA TYPHIMURIUM, Strain/Indicator: TA98, Metabolic Activation: RABBIT, LIVER, S-9, Method: MICROSUSPENSION) of the same compound?
Its mutagenic call is “active; positive”.

And the mutagenic call (Test System: AMES SALMONELLA TYPHIMURIUM, Strain/Indicator: TA98, Metabolic Activation: RABBIT, LUNG, S-9, Method: MICROSUSPENSION)?
The mutagenic call was “active; positive”.

What about the mutagenic call (Test System: AMES SALMONELLA TYPHIMURIUM, Strain/Indicator: TA98, Metabolic Activation: RABBIT, TRACHEA, S-9, Method: MICROSUSPENSION) of the same compound?
Its mutagenic call is “active; positive”.

And the mutagenic call (Test System: AMES SALMONELLA TYPHIMURIUM, Strain/Indicator: TA98, Metabolic Activation: RAT LIVER S-9, DELOR 103, Method: STANDARD PLATE)?
The mutagenic call was “active; positive”.

What about the mutagenic call (Test System: AMES SALMONELLA TYPHIMURIUM, Strain/Indicator: TA98, Metabolic Activation: RAT LIVER S-9, DELOREM 103, Method: STANDARD PLATE) of the same compound?
Its mutagenic call is “active; positive”.

And the mutagenic call (Test System: AMES SALMONELLA TYPHIMURIUM, Strain/Indicator: TA98, Metabolic Activation: RAT, LIVER, MICROSOMES, PHENOBARBITAL, Method: STANDARD PLATE)?
Its mutagenic call is “active; positive”.

And the mutagenic call (Test System: AMES SALMONELLA TYPHIMURIUM, Strain/Indicator: TA98, Metabolic Activation: RAT, LIVER, S-9, ACRYLAMIDE, Method: STANDARD PLATE)?
The mutagenic call was “active; positive”.

And the mutagenic call (Test System: AMES SALMONELLA TYPHIMURIUM, Strain/Indicator: TA98, Metabolic Activation: RAT, LIVER, S-9, AROCLOR 1254, Method: PREINCUBATION)?
The mutagenic call was “active; positive”.

And the mutagenic call (Test System: AMES SALMONELLA TYPHIMURIUM, Strain/Indicator: TA98, Metabolic Activation: RAT, LIVER, S-9, AROCLOR 1254, Method: STANDARD PLATE)?
Its mutagenic call is “active; positive”.

What about the mutagenic call (Test System: AMES SALMONELLA TYPHIMURIUM, Strain/Indicator: TA98, Metabolic Activation: RAT, LIVER, S-9, PHENOBARBITAL, Method: STANDARD PLATE) of the same compound?
Its mutagenic call is “active; positive”.

What about the mutagenic call (Test System: AMES SALMONELLA TYPHIMURIUM, Strain/Indicator: TA98, Metabolic Activation: RAT, LIVER, S-9, Method: MICROSUSPENSION) of the same compound?
Its mutagenic call is “active; positive”.

And the mutagenic call (Test System: AMES SALMONELLA TYPHIMURIUM, Strain/Indicator: TA98, Metabolic Activation: RAT, LUNG, S-9, Method: MICROSUSPENSION)?
The mutagenic call was “inactive; negative”.

What about the mutagenic call (Test System: AMES SALMONELLA TYPHIMURIUM, Strain/Indicator: TA98, Metabolic Activation: RAT, TRACHEA, S-9, Method: MICROSUSPENSION) of the same compound?
The mutagenic call was “inactive; negative”.

And the mutagenic call (Test System: AMES SALMONELLA TYPHIMURIUM, Strain/Indicator: TA100, Metabolic Activation: HUMAN LIVER, S-9, Method: STANDARD PLATE)?
Its mutagenic call is “active; positive”.

What about the mutagenic call (Test System: AMES SALMONELLA TYPHIMURIUM, Strain/Indicator: TA100, Metabolic Activation: HUMAN, LIVER, S-9, Method: STANDARD PLATE) of the same compound?
The mutagenic call was “active; positive”.

And the mutagenic call (Test System: AMES SALMONELLA TYPHIMURIUM, Strain/Indicator: TA100, Metabolic Activation: HUMAN, PLACENTAL MICROSOMES, Method: PREINCUBATION)?
The mutagenic call was “active; positive”.
